Laboratory results: patent EP4640206A1, “NISIN FOR INHIBITING BIOFILMS” (SkyLab AG, priority 2024, dated 2025)

Test system: multispecies biofilms
Assay: Follow-up observation of pH of washes of a laboratory model of multispecies biofilms in 10% sucrose
Format: cell-based
Details: for Value of pH decrease within 30 min. of measurement (%): compared to the initial value
Description: Example No. 3. Follow-up observation of pH of washes of a laboratory model of multispecies biofilms.
To perform this test, it was necessary to obtain multispecies biofilms of bacteria. A 72-well, round-bottom, polystyrene plate for titration was used as an adhesive surface for growing multispecies biofilms. The inner surface was processed with a round abrasive drill bit, with visual inspection of the procedure. Then the plate was washed and immersed into isopropyl alcohol for 10 min. followed by 3-fold washing in distilled water.
Saliva was collected in the fasting state by spitting into a sterile centrifuge tube. Saliva was used to prepare inoculum with the following composition: 96.5 ml of saliva, 1 ml of 10% sucrose, 3.5 ml of S.mutans suspension 0.8 units of McF.
To obtain biofilms, the prepared inoculum was poured 1 ml into all wells of the prepared plate, after which the wells were covered with a similar plate and sealed with parafilm film. The plate was placed on a shaker pad with variable surface slope placed in a CO2 incubator and incubated overnight (16 hours). The contents of the wells were then extracted with an aspirator by dipping the plastic tip into the center of the well until completely drained. 1 ml of soy-casein broth was added to all wells of the plate with an automatic pipette. The plate was placed into the incubator. The described cycle was repeated for four days.
Biofilm formation was monitored visually by gram staining. After four days, the contents of the wells were extracted with an aspirator. All 6 wells of the first row were filled with 1 ml of deionized water and left for 5 min. Water was extracted with an aspirator; 1 ml of the test drug was added into the wells, in 1 min. the drug was removed, the wells were filled for 1 min. with deionized water, then it was removed. 250 µl of 10% sucrose solution was added to the wells. The formed biofilms were scraped off with a disposable loop (10µl); the suspension of two neighboring wells was combined and transferred to three Eppendorfs. Sample combination allowed increasing the volume of the analyzed suspension sample up to 0.5 ml, which in turn allowed carrying out pH measurements in free volume with the necessary reserve at high density of biofilm culture of microorganisms and optimal time for the sample measurement procedure (20 sec.). After combination of the samples, pH was immediately measured. The measurement time points were 0, 1, 2, 3, 4, 5, 6, 6, 7, 8, 9, 10, 15,20,30 min. The results of pH changes in multispecies dental biofilms in the presence of sucrose under the influence of active ingredients are shown in Figure 3 and Tables 3-4. Table 3. Results of pH measurements of mechanically disrupted multispecies biofilms in 10% sucrose solution, follow-up (10% sucrose solution pH-6.98).

## NC(N)=O [Urea, reference compound]
Urea 0.5%, 0 min
  pH of mechanically disrupted multispecies biofilms: 6.4±0.006
Urea 0.5%, 1 min
  pH of mechanically disrupted multispecies biofilms: 6.4±0.006
Urea 0.5%, 1 min vs previous time point
  pH change (in brackets), multispecies biofilms: 0
Urea 0.5%, 2 min
  pH of mechanically disrupted multispecies biofilms: 6.4±0.006
Urea 0.5%, 2 min vs previous time point
  pH change (in brackets), multispecies biofilms: 0
Urea 0.5%, 3 min
  pH of mechanically disrupted multispecies biofilms: 6.4±0.006
Urea 0.5%, 3 min vs previous time point
  pH change (in brackets), multispecies biofilms: 0
Urea 0.5%, 4 min
  pH of mechanically disrupted multispecies biofilms: 6.41±0.006
Urea 0.5%, 4 min vs previous time point
  pH change (in brackets), multispecies biofilms: +0.01
Urea 0.5%, 5 min
  pH of mechanically disrupted multispecies biofilms: 6.42±0.006
Urea 0.5%, 5 min vs previous time point
  pH change (in brackets), multispecies biofilms: +0.01
Urea 0.5%, 6 min
  pH of mechanically disrupted multispecies biofilms: 6.44±0.006
Urea 0.5%, 6 min vs previous time point
  pH change (in brackets), multispecies biofilms: +0.02
Urea 0.5%, 7 min
  pH of mechanically disrupted multispecies biofilms: 6.45±0.006
Urea 0.5%, 7 min vs previous time point
  pH change (in brackets), multispecies biofilms: +0.01
Urea 0.5%, 8 min
  pH of mechanically disrupted multispecies biofilms: 6.43±0.02
Urea 0.5%, 8 min vs previous time point
  pH change (in brackets), multispecies biofilms: -0.02
Urea 0.5%, 9 min
  pH of mechanically disrupted multispecies biofilms: 6.43±0.0
Urea 0.5%, 9 min vs previous time point
  pH change (in brackets), multispecies biofilms: 0
Urea 0.5%, 10 min
  pH of mechanically disrupted multispecies biofilms: 6.42±0.0
Urea 0.5%, 10 min vs previous time point
  pH change (in brackets), multispecies biofilms: -0.01
Urea 0.5%, 15 min
  pH of mechanically disrupted multispecies biofilms: 6.25±0.01
Urea 0.5%, 15 min vs previous time point
  pH change (in brackets), multispecies biofilms: -0.17
Urea 0.5%, 20 min
  pH of mechanically disrupted multispecies biofilms: 6.18±0.02
Urea 0.5%, 20 min vs previous time point
  pH change (in brackets), multispecies biofilms: -0.07
Urea 0.5%, 30 min
  pH of mechanically disrupted multispecies biofilms: 5.97±0.02
Urea 0.5%, 30 min vs previous time point
  pH change (in brackets), multispecies biofilms: -0.21
Urea 0.5%
  Value of pH decrease within 30 min. of measurement (%): -6.7%

## Nisin
Nisin 0.004%, 0 min
  pH of mechanically disrupted multispecies biofilms: 6.32±0.006
Nisin 0.004%, 1 min
  pH of mechanically disrupted multispecies biofilms: 6.3±0.006
Nisin 0.004%, 1 min vs previous time point
  pH change (in brackets), multispecies biofilms: -0.02
Nisin 0.004%, 2 min
  pH of mechanically disrupted multispecies biofilms: 6.28±0.0
Nisin 0.004%, 2 min vs previous time point
  pH change (in brackets), multispecies biofilms: -0.02
Nisin 0.004%, 3 min
  pH of mechanically disrupted multispecies biofilms: 6.26±0.006
Nisin 0.004%, 3 min vs previous time point
  pH change (in brackets), multispecies biofilms: -0.02
Nisin 0.004%, 4 min
  pH of mechanically disrupted multispecies biofilms: 6.24±0.01
Nisin 0.004%, 4 min vs previous time point
  pH change (in brackets), multispecies biofilms: -0.02
Nisin 0.004%, 5 min
  pH of mechanically disrupted multispecies biofilms: 6.22±0.006
Nisin 0.004%, 5 min vs previous time point
  pH change (in brackets), multispecies biofilms: -0.02
Nisin 0.004%, 6 min
  pH of mechanically disrupted multispecies biofilms: 6.2±0.0
Nisin 0.004%, 6 min vs previous time point
  pH change (in brackets), multispecies biofilms: -0.02
Nisin 0.004%, 7 min
  pH of mechanically disrupted multispecies biofilms: 6.2±0.006
Nisin 0.004%, 7 min vs previous time point
  pH change (in brackets), multispecies biofilms: 0
Nisin 0.004%, 8 min
  pH of mechanically disrupted multispecies biofilms: 6.19±0.0
Nisin 0.004%, 8 min vs previous time point
  pH change (in brackets), multispecies biofilms: -0.01
Nisin 0.004%, 9 min
  pH of mechanically disrupted multispecies biofilms: 6.19±0.006
Nisin 0.004%, 9 min vs previous time point
  pH change (in brackets), multispecies biofilms: 0
Nisin 0.004%, 10 min
  pH of mechanically disrupted multispecies biofilms: 6.18±0.0
Nisin 0.004%, 10 min vs previous time point
  pH change (in brackets), multispecies biofilms: -0.01
Nisin 0.004%, 15 min
  pH of mechanically disrupted multispecies biofilms: 6.12±0.006
Nisin 0.004%, 15 min vs previous time point
  pH change (in brackets), multispecies biofilms: -0.06
Nisin 0.004%, 20 min
  pH of mechanically disrupted multispecies biofilms: 6.11±0.0
Nisin 0.004%, 20 min vs previous time point
  pH change (in brackets), multispecies biofilms: -0.01
Nisin 0.004%, 30 min
  pH of mechanically disrupted multispecies biofilms: 6.07±0.006
Nisin 0.004%, 30 min vs previous time point
  pH change (in brackets), multispecies biofilms: -0.04
Nisin 0.004%
  Value of pH decrease within 30 min. of measurement (%): -3.95%
Nisin 0.008%
  Value of pH decrease within 30 min. of measurement (%): -8.7%
Nisin 0,008%, 0 min
  pH of mechanically disrupted multispecies biofilms: 6.54±0.006
Nisin 0,008%, 1 min
  pH of mechanically disrupted multispecies biofilms: 6.45±0.006
Nisin 0,008%, 1 min vs previous time point
  pH change (in brackets), multispecies biofilms: -0.09
Nisin 0,008%, 2 min
  pH of mechanically disrupted multispecies biofilms: 6.4±0.006
Nisin 0,008%, 2 min vs previous time point
  pH change (in brackets), multispecies biofilms: -0.05
Nisin 0,008%, 3 min
  pH of mechanically disrupted multispecies biofilms: 6.35±0.006
Nisin 0,008%, 3 min vs previous time point
  pH change (in brackets), multispecies biofilms: -0.05
Nisin 0,008%, 4 min
  pH of mechanically disrupted multispecies biofilms: 6.3±0.006
Nisin 0,008%, 4 min vs previous time point
  pH change (in brackets), multispecies biofilms: -0.05
Nisin 0,008%, 5 min
  pH of mechanically disrupted multispecies biofilms: 6.22±0.01
Nisin 0,008%, 5 min vs previous time point
  pH change (in brackets), multispecies biofilms: -0.08
Nisin 0,008%, 6 min
  pH of mechanically disrupted multispecies biofilms: 6.16±0.006
Nisin 0,008%, 6 min vs previous time point
  pH change (in brackets), multispecies biofilms: -0.06
Nisin 0,008%, 7 min
  pH of mechanically disrupted multispecies biofilms: 6.1±0.01
Nisin 0,008%, 7 min vs previous time point
  pH change (in brackets), multispecies biofilms: -0.06
Nisin 0,008%, 8 min
  pH of mechanically disrupted multispecies biofilms: 6.0±0.02
Nisin 0,008%, 8 min vs previous time point
  pH change (in brackets), multispecies biofilms: -0.1
Nisin 0,008%, 9 min
  pH of mechanically disrupted multispecies biofilms: 5.99±0.006
Nisin 0,008%, 9 min vs previous time point
  pH change (in brackets), multispecies biofilms: -0.01
Nisin 0,008%, 10 min
  pH of mechanically disrupted multispecies biofilms: 5.98±0.0
Nisin 0,008%, 10 min vs previous time point
  pH change (in brackets), multispecies biofilms: -0.01
Nisin 0,008%, 15 min
  pH of mechanically disrupted multispecies biofilms: 5.97±0.006
Nisin 0,008%, 15 min vs previous time point
  pH change (in brackets), multispecies biofilms: -0.01
Nisin 0,008%, 20 min
  pH of mechanically disrupted multispecies biofilms: 5.96±0.006
Nisin 0,008%, 20 min vs previous time point
  pH change (in brackets), multispecies biofilms: -0.01
Nisin 0,008%, 30 min
  pH of mechanically disrupted multispecies biofilms: 5.97±0.006
Nisin 0,008%, 30 min vs previous time point
  pH change (in brackets), multispecies biofilms: +0.01
Nisin 0.004 and 0.008%
  effect on the value of acidity in the multispecies biofilm affected by sucrose: stabilizing effect
